16 compounds from paper PMC8119466, “A screen of FDA-approved drugs identifies inhibitors of protein tyrosine phosphatase 4A3 (PTP4A3 or PRL-3)” (Scientific Reports, 2021) can be followed below.

What all share (format): biochemical
Common to all, as to conditions: FDA-approved drug screen

One test has as its target T1, recombinant PRL-2 (Homo sapiens, UniProt Q12974).
T1 construct: 6xHis (N, cleaved yes); made in house; host or cells: E. coli One Shot BL21 Star
T1 sequence (Q12974 1-167): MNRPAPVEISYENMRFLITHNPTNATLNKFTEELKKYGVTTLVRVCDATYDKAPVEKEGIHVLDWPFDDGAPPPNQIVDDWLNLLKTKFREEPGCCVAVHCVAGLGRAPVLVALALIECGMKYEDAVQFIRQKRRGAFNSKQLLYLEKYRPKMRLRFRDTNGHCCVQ
Nature of the test: In vitro phosphatase assay (DiFMUP hydrolysis), PRL-2.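 Further: PRL-2 activity read as DiFMUP hydrolysis after 20 min at room temperature with drug, enzyme first pre-reduced at 4 °C for 20 min.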

The next test deals with T2, recombinant PRL-3 (Homo sapiens, UniProt O75365).
T2 construct: 6xHis (N, cleaved yes); made in house; host or cells: E. coli One Shot BL21 Star
Nature of the test: In vitro phosphatase assay (DiFMUP hydrolysis), PRL-3. Further: test concentration or dose not given here.

A further test concerns the target T3, recombinant PRL-1 (Homo sapiens, UniProt Q93096).
T3 construct: 6xHis (N, cleaved yes); made in house; host or cells: E. coli One Shot BL21 Star
T3 sequence (Q93096 1-173): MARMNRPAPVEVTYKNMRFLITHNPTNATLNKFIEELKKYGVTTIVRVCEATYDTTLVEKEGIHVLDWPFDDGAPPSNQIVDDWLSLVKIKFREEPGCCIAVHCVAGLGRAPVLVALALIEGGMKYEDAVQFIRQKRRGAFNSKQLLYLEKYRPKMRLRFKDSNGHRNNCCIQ
The test can be described thus: In vitro phosphatase assay (DiFMUP hydrolysis), PRL-1. Further: test concentration or dose not given here.

Counter-ions that a name gives are not always drawn.

T2 sequence (O75365 whole entry): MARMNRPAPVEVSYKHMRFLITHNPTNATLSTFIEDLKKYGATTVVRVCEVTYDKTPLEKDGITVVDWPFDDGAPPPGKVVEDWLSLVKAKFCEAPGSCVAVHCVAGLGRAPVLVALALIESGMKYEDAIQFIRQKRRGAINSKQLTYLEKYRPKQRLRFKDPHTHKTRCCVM
Method for recombinant PRL-1: Briefly, protein was diluted in reaction buffer and allowed to incubate at 4 °C for 20 min to allow for full reduction of the active site. DiFMUP, drug, and protein were added, and plates were incubated for 20 min at room temperature. Fluorescence intensities were measured on a Cytation 5 plate reader (Biotek) at an EX:360 nm and EM:460 nm. […] Inhibition selectivity for PRLs over a panel of other phosphatases was determined using PhosphataseProfiler (Eurofins, Cat # PP260).

As for `COc1ccccc1N1CCN(CCCNc2cc(=O)n(C)c(=O)n2C)CC1.Cl` [Urapidil HCl], the “% Phosphatase Activity (compared to DMSO) PRL-2” value on recombinant PRL-2 (activity compared to DMSO) was determined as 97%. Moreover, at recombinant PRL-3 (activity compared to DMSO), the “% Phosphatase Activity (compared to DMSO) PRL-3” value was 92%. Besides, at recombinant PRL-1 (activity compared to DMSO), the “% Phosphatase Activity (compared to DMSO) PRL-1” value is given as 98%.

In the case of `COC1=CC(=O)C[C@@H](C)[C@]12Oc1c(Cl)c(OC)cc(OC)c1C2=O` [Griseofulvin], the “% Phosphatase Activity (compared to DMSO) PRL-2” value on recombinant PRL-2 (compared to DMSO) was 125%. Moreover, the “% Phosphatase Activity (compared to DMSO) PRL-3” value at recombinant PRL-3 (compared to DMSO) is 90%. Further, the “% Phosphatase Activity (compared to DMSO) PRL-1” value at recombinant PRL-1 (compared to DMSO) is on record as 112%.

As to `NC(=O)N1CCC(CC(=O)N2CCC([C@H]3c4ncc(Br)cc4CCc4cc(Cl)cc(Br)c43)CC2)CC1` [Lonafarnib], the “% Phosphatase Activity (compared to DMSO) PRL-2” value on recombinant PRL-2 (compared to DMSO) is recorded as 103%. Further, the “% Phosphatase Activity (compared to DMSO) PRL-3” value at recombinant PRL-3 (compared to DMSO) amounted to 97%. Also, at recombinant PRL-1 (compared to DMSO), the “% Phosphatase Activity (compared to DMSO) PRL-1” value is 97%.

In the case of `Cc1cccc(Nc2ccncc2S(=O)(=O)NC(=O)NC(C)C)c1` [Torsemide], the “% Phosphatase Activity (compared to DMSO) PRL-2” value on recombinant PRL-2 (activity compared to DMSO) is recorded as 93%. Moreover, on recombinant PRL-3 (activity compared to DMSO), the “% Phosphatase Activity (compared to DMSO) PRL-3” value turned out to be 77%. Moreover, at recombinant PRL-1 (activity compared to DMSO), the “% Phosphatase Activity (compared to DMSO) PRL-1” value was 99%.

As for `CCN1CCN(C(=O)N[C@@H](C(=O)N[C@@H]2C(=O)N3C(C(=O)O)=C(CSc4nnnn4C)CS[C@H]23)c2ccc(O)cc2)C(=O)C1=O` [Cefoperazone], on recombinant PRL-2 (compared to DMSO), the “% Phosphatase Activity (compared to DMSO) PRL-2” value is 94%. For the same compound, the “% Phosphatase Activity (compared to DMSO) PRL-3” value on recombinant PRL-3 (compared to DMSO) was 89%. The “% Phosphatase Activity (compared to DMSO) PRL-1” value at recombinant PRL-1 (compared to DMSO) was 100%.

As for `C=CC(=O)Nc1cc(Nc2nccc(-c3cn(C)c4ccccc34)n2)c(OC)cc1N(C)CCN(C)C` [AZD9291], on recombinant PRL-2 (compared to DMSO), the “% Phosphatase Activity (compared to DMSO) PRL-2” value is given as 89%. Also, the “% Phosphatase Activity (compared to DMSO) PRL-3” value on recombinant PRL-3 (compared to DMSO) amounted to 100%. For the same compound, the “% Phosphatase Activity (compared to DMSO) PRL-1” value on recombinant PRL-1 (compared to DMSO) is given as 88%.

`CC1Cc2ccccc2N1NC(=O)c1ccc(Cl)c(S(N)(=O)=O)c1` (stereo not drawn) [Indapamide]: the “% Phosphatase Activity (compared to DMSO) PRL-2” value at recombinant PRL-2 (compared to DMSO) is 105%. For the same compound, the “% Phosphatase Activity (compared to DMSO) PRL-3” value at recombinant PRL-3 (compared to DMSO) is on record as 117%. In addition, at recombinant PRL-1 (compared to DMSO), the “% Phosphatase Activity (compared to DMSO) PRL-1” value was found to be 98%.

Turning to `CNC(=O)c1ccccc1Sc1ccc2c(/C=C/c3ccccn3)n[nH]c2c1` [Axitinib], on recombinant PRL-2 (compared to DMSO), the “% Phosphatase Activity (compared to DMSO) PRL-2” value is on record as 164%. In addition, the “% Phosphatase Activity (compared to DMSO) PRL-3” value on recombinant PRL-3 (compared to DMSO) is 96%. In addition, the “% Phosphatase Activity (compared to DMSO) PRL-1” value at recombinant PRL-1 (compared to DMSO) turned out to be 102%.

On to `N#C[C@@H]1C[C@@H]2C[C@@H]2N1C(=O)[C@@H](N)C12CC3CC(CC(O)(C3)C1)C2` [Saxagliptin hydrate], for which, on recombinant PRL-2 (compared to DMSO), the “% Phosphatase Activity (compared to DMSO) PRL-2” value came to 80%. Further, the “% Phosphatase Activity (compared to DMSO) PRL-3” value at recombinant PRL-3 (compared to DMSO) came out at 86%. Further, at recombinant PRL-1 (compared to DMSO), the “% Phosphatase Activity (compared to DMSO) PRL-1” value stood at 93%.

For the compound `COc1ccc2c(c1OC)C(=O)O[C@@H]2[C@H]1c2c(cc3c(c2OC)OCO3)CCN1C` [Noscapine HCl], at recombinant PRL-2 (compared to DMSO), the “% Phosphatase Activity (compared to DMSO) PRL-2” value amounted to 116%. Besides, the “% Phosphatase Activity (compared to DMSO) PRL-3” value at recombinant PRL-3 (compared to DMSO) is recorded as 103%. On recombinant PRL-1 (compared to DMSO), the “% Phosphatase Activity (compared to DMSO) PRL-1” value is 92%.

On to `CN1CCOC(c2ccccc2)c2ccccc2C1` (stereo not drawn) [Nefopam HCl], for which the “% Phosphatase Activity (compared to DMSO) PRL-2” value on recombinant PRL-2 (compared to DMSO) is given as 87%. The “% Phosphatase Activity (compared to DMSO) PRL-3” value at recombinant PRL-3 (compared to DMSO) is on record as 101%. The “% Phosphatase Activity (compared to DMSO) PRL-1” value at recombinant PRL-1 (compared to DMSO) came out at 108%.

For `CS(=O)(=O)c1ccc(C2=C(c3ccccc3)C(=O)OC2)cc1` [Rofecoxib], the “% Phosphatase Activity (compared to DMSO) PRL-2” value on recombinant PRL-2 (compared to DMSO) was 120%. Further, the “% Phosphatase Activity (compared to DMSO) PRL-3” value on recombinant PRL-3 (compared to DMSO) came out at 92%. Further, on recombinant PRL-1 (compared to DMSO), the “% Phosphatase Activity (compared to DMSO) PRL-1” value is listed as 110%.

Regarding `Cc1cc(=O)n(-c2ccccc2)n1C` [Antipyrine], the “% Phosphatase Activity (compared to DMSO) PRL-2” value at recombinant PRL-2 (compared to DMSO) came out at 107%. Moreover, the “% Phosphatase Activity (compared to DMSO) PRL-3” value at recombinant PRL-3 (compared to DMSO) was 87%. The “% Phosphatase Activity (compared to DMSO) PRL-1” value on recombinant PRL-1 (compared to DMSO) worked out at 98%.

For the compound `COc1cccc(-c2ccc(NC(=O)C3=C(C(=O)O)CCC3)c(F)c2)c1` [Vidofludimus], the “% Phosphatase Activity (compared to DMSO) PRL-2” value at recombinant PRL-2 (activity compared to DMSO) was 72%. For the same compound, the “% Phosphatase Activity (compared to DMSO) PRL-3” value at recombinant PRL-3 (activity compared to DMSO) was 91%. In addition, the “% Phosphatase Activity (compared to DMSO) PRL-1” value at recombinant PRL-1 (activity compared to DMSO) came to 97%.

Consider `CNC(=O)c1cc(Oc2ccc(NC(=O)Nc3ccc(Cl)c(C(F)(F)F)c3)cc2)ccn1` [Sorafenib Tosylate], for which the “% Phosphatase Activity (compared to DMSO) PRL-2” value on recombinant PRL-2 (activity compared to DMSO) worked out at 93%. Also, the “% Phosphatase Activity (compared to DMSO) PRL-3” value at recombinant PRL-3 (activity compared to DMSO) worked out at 73%. The “% Phosphatase Activity (compared to DMSO) PRL-1” value on recombinant PRL-1 (activity compared to DMSO) came out at 85%.

In the case of `COc1ccnc(C[S+]([O-])c2nc3ccc(OC(F)F)cc3[nH]2)c1OC` (stereo not drawn) [Pantoprazole sodium], the “% Phosphatase Activity (compared to DMSO) PRL-2” value at recombinant PRL-2 (compared to DMSO) is 98%. For the same compound, the “% Phosphatase Activity (compared to DMSO) PRL-3” value on recombinant PRL-3 (compared to DMSO) is listed as 88%. In addition, the “% Phosphatase Activity (compared to DMSO) PRL-1” value at recombinant PRL-1 (compared to DMSO) is reported as 97%.
